Values of other authors as cited in US20190161549A1, “COMBINATION THERAPY WITH A MEK INHIBITOR, A PD-1 AXIS INHIBITOR, AND A VEGF INHIBITOR” (Genentech, Inc., priority 2016, published 2019).
Like-named read-outs stand apart in the source and are kept apart here.

Assays:
[1] = not given; remark: listed apart in the source
cancer patients = conditions: 14 CRC patients
human tumor cell lines = conditions: through inhibition of MEK1 and MEK2
[2] = with or without high-fat meal, versus cobimetinib alone fasted
[3] = dose range 0.05 mg/kg (approximately 3.5 mg for 70 kg adult) to 80 mg
[4] = test system: human tumor xenograft models

| Compound | exposure of fixed dose 800 mg q2w versus 1200 mg q3w (800 mg every two weeks (equivalent to 10 mg/kg q2w)) | dose proportionality of pharmacokinetics (doses ≥1 mg/kg every three weeks (q3w)) | Kaplan-Meier estimated overall 24-week progression-free survival (PFS) rate ([1]; Study PCD4989g, 95% CI: 12%, 53%) [%] | anti-tumor activity ([1]; across doses from 1 to 20 mg/kg) | response in colorectal cancer (CRC) patients (cancer patients) | proliferation of a variety of human tumor cell lines (human tumor cell lines) | effect of proton pump inhibitor rabeprazole on pharmacokinetics [2] | dose proportionality of pharmacokinetics [3] | ERK phosphorylation in xenograft tumor models [4] |
| --- | --- | --- | --- | --- | --- | --- | --- | --- | --- |
| atezolizumab: anti-PD-L1 antibody, CAS Registry Number: 1422185-06-5 | equivalent exposure | linear | 33 | has been observed |  |  |  |  |  |
| O=C(c1ccc(F)c(F)c1Nc1ccc(I)cc1F)N1CC(O)([C@@H]2CCCCN2)C1 [cobimetinib, (S)[3,4-Difluoro-2-(2-fluoro-4-iodophenylamino)phenyl][3-hydroxy-3-(piperidin-2-yl]azetidin-1-yl) methanone] |  |  |  |  | all patients experienced progressive disease | inhibits proliferation | minimal effect | linear pharmacokinetics | inhibits ERK phosphorylation |
